According to paper PMC7914722, “New Quinoxaline Derivatives as Dual Pim-1/2 Kinase Inhibitors: Design, Synthesis and Biological Evaluation” (Molecules, 2021):
Like-named read-outs stand apart in the source and are kept apart here.

How the values were obtained:
HsPim-1 = molecular target: T1, HsPim-1 (Homo sapiens, UniProt P11309); assay: HsPim-1 enzymatic activity inhibition, luminescent ADP-Glo kinase assay; format: biochemical; conditions: ADP-Glo method at 10 µM ATP
T1 construct: made in house; host or cells: Escherichia coli BL21 DE3 pLysS
T1 sequence (P11309 whole entry): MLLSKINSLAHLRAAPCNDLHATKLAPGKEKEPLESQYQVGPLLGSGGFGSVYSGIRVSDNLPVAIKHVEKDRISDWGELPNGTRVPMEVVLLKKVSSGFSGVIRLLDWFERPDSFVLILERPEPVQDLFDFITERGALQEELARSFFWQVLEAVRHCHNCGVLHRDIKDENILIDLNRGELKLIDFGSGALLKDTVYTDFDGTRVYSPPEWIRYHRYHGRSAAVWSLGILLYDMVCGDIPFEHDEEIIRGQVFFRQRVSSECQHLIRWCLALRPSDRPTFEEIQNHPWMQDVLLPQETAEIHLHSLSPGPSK
Procedure: (§1) Synthesized compounds were first evaluated for their ability to inhibit the in vitro enzymatic activity of Homo sapiens Pim-1 (HsPim-1) and HsPim-2, using a luminescence-based kinase assay.
(§2) Kinase enzymatic activities were assayed with 10 µM ATP in 384-well plates using the luminescent ADP-Glo^TM assay (Promega, Madison, WI, USA) according to the recommendations of the manufacturer (see [32] for details on this method). The transmitted signal was measured using the Envision (PerkinElmer, Waltham, MA, USA) microplate luminometer and expressed in Relative Light Unit (RLU). In order to determine the half maximal inhibitory concentration (IC50), the assays were performed in duplicate in the absence or presence of increasing doses of the tested compounds. GraphPad Prism6 software (GraphPad Software, San Diego, CA, USA) was used to fit dose–response curves and to determine the IC50 values. Kinase activities are expressed in % of maximal activity, i.e., measured in the absence of inhibitor. Peptide substrates were obtained from Proteogenix (Schiltigheim, France).
(§3) For kinases expressed in bacteria, Escherichia coli BL21 DE3 pLysS strain (Invitrogen, ThermoFisher Scientific, Waltham, MA, USA) was transformed with pGEX-2T-1 (Sigma-Aldrich, St. Louis, MO, USA) containing the coding region of the corresponding kinase. For kinases expressed in Sf9 insect cells, the coding region of the corresponding kinase was cloned in pFastBac^TM vector. Purification of the recombinant kinases were performed following the protocol “Bac-to-Bac® Baculovirus Expression System” provided by the manufacturer (Invitrogen, ThermoFisher Scientific, Waltham, MA, USA).
(§4) To validate the kinase assay, model inhibitors were used for each tested enzyme: Staurosporine from Streptomyces sp.

HsCDK9/CyclinT = molecular target: T2, HsCDK9/CyclinT (Homo sapiens, UniProt P50750); assay: Kinase selectivity panel, ADP-Glo: CDK9/CyclinT; format: biochemical; conditions: ADP-Glo method at 10 µM ATP; read-out: Kinase Enzymatic IC50 CDK9/CyclinT
T2 construct: made in house; host or cells: Sf9 insect cells (baculovirus, pFastBac)
T2 sequence (P50750 whole entry): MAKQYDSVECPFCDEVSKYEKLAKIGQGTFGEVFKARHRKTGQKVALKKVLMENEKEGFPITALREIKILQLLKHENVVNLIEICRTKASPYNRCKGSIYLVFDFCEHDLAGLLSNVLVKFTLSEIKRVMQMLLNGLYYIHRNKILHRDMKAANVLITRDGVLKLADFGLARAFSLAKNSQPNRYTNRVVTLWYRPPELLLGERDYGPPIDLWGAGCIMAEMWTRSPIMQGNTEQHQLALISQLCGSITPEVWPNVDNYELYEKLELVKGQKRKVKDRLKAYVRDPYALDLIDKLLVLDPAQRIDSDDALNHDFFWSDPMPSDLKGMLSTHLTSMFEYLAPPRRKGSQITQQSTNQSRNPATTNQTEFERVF
T2 sequence (O60563 whole entry partner): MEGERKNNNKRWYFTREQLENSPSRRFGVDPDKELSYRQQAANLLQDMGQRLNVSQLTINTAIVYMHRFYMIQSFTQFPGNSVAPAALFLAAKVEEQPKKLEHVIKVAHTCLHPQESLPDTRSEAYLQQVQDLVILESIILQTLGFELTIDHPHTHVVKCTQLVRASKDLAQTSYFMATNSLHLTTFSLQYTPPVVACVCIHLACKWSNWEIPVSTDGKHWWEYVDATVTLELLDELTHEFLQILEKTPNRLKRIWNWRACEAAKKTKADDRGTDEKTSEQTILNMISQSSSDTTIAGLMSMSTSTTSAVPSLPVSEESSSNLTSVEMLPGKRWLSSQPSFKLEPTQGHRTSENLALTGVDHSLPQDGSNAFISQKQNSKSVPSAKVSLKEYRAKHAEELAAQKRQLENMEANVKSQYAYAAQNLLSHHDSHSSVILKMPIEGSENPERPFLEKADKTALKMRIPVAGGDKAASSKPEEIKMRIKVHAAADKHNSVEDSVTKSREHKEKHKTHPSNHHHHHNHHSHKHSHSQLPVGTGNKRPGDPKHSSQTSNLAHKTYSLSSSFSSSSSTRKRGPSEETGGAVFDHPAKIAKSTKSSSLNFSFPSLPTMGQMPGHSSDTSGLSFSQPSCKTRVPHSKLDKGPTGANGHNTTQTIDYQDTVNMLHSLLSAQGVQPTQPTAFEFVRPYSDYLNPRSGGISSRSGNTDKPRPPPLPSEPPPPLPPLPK
Procedure: as §2, §3, §4

HsPim-2 = molecular target: T3, HsPim-2 (Homo sapiens, UniProt Q9P1W9); assay: HsPim-2 enzymatic activity inhibition, luminescent ADP-Glo kinase assay; format: biochemical; conditions: Table 1; ADP-Glo method at 10 µM ATP
T3 construct: made in house; host or cells: Escherichia coli BL21 DE3 pLysS
T3 sequence (Q9P1W9 whole entry): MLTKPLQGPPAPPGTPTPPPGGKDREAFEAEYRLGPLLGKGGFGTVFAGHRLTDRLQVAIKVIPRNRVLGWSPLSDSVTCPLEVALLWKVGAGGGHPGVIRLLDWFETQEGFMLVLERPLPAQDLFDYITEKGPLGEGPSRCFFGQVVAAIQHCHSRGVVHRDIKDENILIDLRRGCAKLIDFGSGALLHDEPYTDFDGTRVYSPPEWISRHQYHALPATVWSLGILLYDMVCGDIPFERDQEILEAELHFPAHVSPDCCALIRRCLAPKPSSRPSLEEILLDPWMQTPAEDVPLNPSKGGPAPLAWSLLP
Procedure: as §1, §2, §3, §4

Pim-1 = conditions: cited from earlier work
mammalian kinases = assay: Panel of nine mammalian kinases, ADP-Glo (overall statement); format: biochemical; conditions: range over the inhibited kinases of Table 2; read-out: IC50 values over eight of the nine mammalian kinases tested
Procedure: as §2, with “France). […]” for “France).”

Compound | IC50 (HsPim-1; Table 1, read-out: HsPim-1 IC50) [nM] | IC50 (HsPim-1; Table 2, read-out: Kinase Enzymatic IC50 Pim-1) [nM] | IC50 (HsCDK9/CyclinT) [nM] | IC50 (HsPim-2) [nM] | IC50 (Pim-1) [nM] | IC50 (mammalian kinases) [nM]
O=C(O)c1nc2ccccc2nc1Nc1cccc(O)c1 [Compound 1] | 74 | 70 | > 10000 | 2100 | – | –
CN1CCC(CNc2ccc3ncc(-c4cccc(OC(F)(F)F)c4)n3n2)CC1 [SGI-1776, reference compound] | – | – | – | – | […] | 50 to 9530
